From paper PMC7836466, “Putative ligand binding sites of two functionally characterized bark beetle odorant receptors” (BMC Biology, 2021)
Values belong to the molecule of their own block, whether it stands above or below them.

Columns and labels:
[1] = target: T1, ItypOR49 (Ips typographus, UniProt A0A7L8XYT4); assay: calcium fluorescence dose-response in TREx/HEK293 cells; format: cell-based
T1 construct: gene OR49; full-length, N-terminal V5 tag; with ItypOrco
T1 sequence (A0A7L8XYT4 1-406): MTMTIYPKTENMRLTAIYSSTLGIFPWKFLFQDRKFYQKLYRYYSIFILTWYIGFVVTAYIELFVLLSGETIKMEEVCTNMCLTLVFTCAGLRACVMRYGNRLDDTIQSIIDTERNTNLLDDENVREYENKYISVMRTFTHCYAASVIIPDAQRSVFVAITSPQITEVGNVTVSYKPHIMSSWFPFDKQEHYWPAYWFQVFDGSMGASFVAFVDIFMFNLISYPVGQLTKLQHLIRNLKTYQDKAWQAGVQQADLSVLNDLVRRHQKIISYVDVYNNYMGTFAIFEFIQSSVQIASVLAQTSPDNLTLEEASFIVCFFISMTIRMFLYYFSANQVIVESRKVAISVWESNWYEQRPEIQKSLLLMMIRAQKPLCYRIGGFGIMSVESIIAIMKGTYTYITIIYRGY
T1 sequence (A0A7L8XYY7 1-480 partner): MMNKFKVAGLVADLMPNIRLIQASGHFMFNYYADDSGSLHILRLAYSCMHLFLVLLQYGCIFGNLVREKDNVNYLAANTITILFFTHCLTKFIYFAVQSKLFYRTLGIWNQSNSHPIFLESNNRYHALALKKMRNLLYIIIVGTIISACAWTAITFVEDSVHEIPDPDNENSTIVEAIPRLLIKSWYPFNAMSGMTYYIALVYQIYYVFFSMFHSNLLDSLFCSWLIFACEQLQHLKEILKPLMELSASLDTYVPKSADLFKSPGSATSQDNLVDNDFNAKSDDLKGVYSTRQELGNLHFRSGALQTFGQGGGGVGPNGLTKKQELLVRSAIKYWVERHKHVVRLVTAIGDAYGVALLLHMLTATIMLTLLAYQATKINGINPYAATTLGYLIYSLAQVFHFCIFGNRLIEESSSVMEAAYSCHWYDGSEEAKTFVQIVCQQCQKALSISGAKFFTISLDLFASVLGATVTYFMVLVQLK

[2] = target: T2, ItypOR46 (Ips typographus, UniProt A0A7L8XZ66); assay: two-electrode voltage clamp dose-response in Xenopus oocytes (secondary response; not significant in HEK cells); format: cell-based
T2 construct: with ItypOrco
T2 sequence (A0A7L8XZ66 1-408): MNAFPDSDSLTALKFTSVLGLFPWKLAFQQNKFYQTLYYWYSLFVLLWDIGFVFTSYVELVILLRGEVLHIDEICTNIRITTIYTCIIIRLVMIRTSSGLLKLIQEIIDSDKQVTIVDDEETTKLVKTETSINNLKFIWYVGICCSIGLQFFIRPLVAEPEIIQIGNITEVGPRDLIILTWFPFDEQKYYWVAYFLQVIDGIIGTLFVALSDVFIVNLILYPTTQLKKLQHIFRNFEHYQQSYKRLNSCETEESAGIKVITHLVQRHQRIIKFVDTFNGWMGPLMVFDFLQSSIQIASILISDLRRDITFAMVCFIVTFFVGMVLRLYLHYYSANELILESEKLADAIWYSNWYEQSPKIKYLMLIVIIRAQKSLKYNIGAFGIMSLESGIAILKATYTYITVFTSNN

[3] = test system: T3, ItypOR46; assay: calcium fluorescence assay in TREx/HEK293 cells; also Xenopus oocyte two-electrode voltage clamp; site-directed mutagenesis; format: cell-based, Ips typographus
T3 construct: gene OR46; full-length, N-terminal V5 tag; with ItypOrco

[4] = target: T4, ItypOrco (Ips typographus, UniProt A0A7L8XYY7); assay: calcium fluorescence dose-response in TREx/HEK293 cells expressing only ItypOrco; format: cell-based
T4 construct: full-length, N-terminal c-Myc tag
T4 sequence (A0A7L8XYY7 1-480): T1 sequence (A0A7L8XYY7 1-480 partner)

Structure (SMILES): C=CC(=C)C[C@@H](O)C=C(C)C [(R)-(−)-ipsdienol]
EC50 [1]: 9.47 µM
two-electrode voltage clamp dose-response in Xenopus oocytes (secondary response) [2]: secondary response of ItypOR46 to racemic ipsdienol is mainly triggered by the (R)-(−)-enantiomer

Structure (SMILES): C=CC(=C)C[C@@H](O)CC(C)C [(S)-(−)-ipsenol]
EC50 [3]: 1.98 µM

EC50 [4]: 24.5 µM
Structure (SMILES): CCc1ccc(NC(=O)CSc2nnc(-c3cccnc3)n2CC)cc1 [VUAA1]
